Type in all cases: in vivo
The test system of one assay is morning glory. Nature of the assay: Greenhouse trial: castor oil ethoxylate derivatives with glyphosate, morning glory (Example 25). As to conditions: 300 g ae/HA glyphosate; 4 weeks after treatment; ranking from picture. On the procedure: (§1) A greenhouse trial was conducted by spraying solutions of 300 g ae/HA of IPA-glyphosate on wheat. The glyphosate formulation was based on 360 g/L IPA containing 10% active surfactant. Wheat was used as the “weed” because it germinates smoothly and it is a good species for herbicide study. The untreated check (UTC) was sprayed with only water. Pot 150 was sprayed with glyphosate only solution. Pot 149 was sprayed with glyphosate solution containing tallowamine-15EO (TAE15). TAE15 is the most common surfactant used to enhance glyphosate efficacy.
The condition and treatment of example 25 was identical to example 23 except that example 25 used morning glory instead of wheat.

Assay [1] relates to wheat. Briefly: Greenhouse trial: hydroxylated soybean oil derivatives with glyphosate, wheat, visual inspection (Example 24). The conditions noted are these: 300 g ae/HA IPA-glyphosate sprayed on wheat, 10% active surfactant, 4 weeks after treatment. On the procedure:
as §1
A separate set of test was conducted for these surfactants. The condition and treatment of example 24 was identical to example 23. […] In this case % growth control is a qualitative data obtained by visual inspection of the plants. The data clearly indicates glyphosate solutions containing surfactant according to the present invention provides enhanced growth control than glyphosate only, thus acting as an adjuvant.

Assay [2] has as its system wheat. Briefly: Greenhouse trial: bioefficacy enhancing effect of surfactants on glyphosate, wheat (Example 23). As to conditions: 300 g ae/HA IPA-glyphosate sprayed on wheat; 360 g/L IPA formulation with 10% active surfactant; 4 weeks after treatment; from fresh weight. On the procedure: as §1
Plants were sprayed with glyphosate solutions containing surfactant according to the present invention. Table below lists the various surfactants and their corresponding pots. Percent growth control data for 4 weeks after treatment is also shown in this table as well. Percent growth control data was obtained from the fresh weight of these plants. The data clearly indicates glyphosate solutions containing surfactant according to the present invention provides better growth control than glyphosate only, thus acting as an adjuvant. In many cases the adjuvancy is equal to that of TAE15.

Turning to `CC(C)N.O=C(O)CNCP(=O)(O)O` [IPA Glyphosate alone, IPA-glyphosate], in the assay with morning glory, the “morningglory control compared with tallowamine-15EO” value is “didn't show much control”. Besides, the “% Growth Control (qualitative)” value with wheat [1] was found to be 55%. In the assay with wheat [2], the “% Growth Control” value stood at 66%.

The values above are taken from patent publication US10000437B2, “Nitrogen containing surfactants with alkoxylation on the hydroxyl group of fatty chains” (Akzo Nobel Chemicals International B.V., priority 2013, dated 2018).
